Experimental data reported in patent US20060292244A1, “Use of pvp-iodine liposomes for treatment of acne” (priority 2003, published 2006).

Test system: Human ciliated epithelium cells
Assay: in-vitro ciliary activity / ciliary vibration test
Type: cell-based
Protocol: 1 test substance at a temperature of 37° C.

ciliary activity / ciliary vibration: decrease
SMILES: N=C(NCCCCCCNC(=N)NC(=N)Nc1ccc(Cl)cc1)NC(=N)Nc1ccc(Cl)cc1 [chlorohexidine solution, chlorohexidine]
